Results from patent publication US20180036270A1, “A METHOD OF PROTECTING AGAINST CARBONYL STRESS INDUCED ISCHEMIA-REPERFUSION INJURY IN THE DIABETIC BRAIN VIA ADMINISTRATION OF N-ACETYLCYSTEINE” (Board of Supervisors of Louisiana State University and …, priority 2015, published 2018).

Experiments:
Akita diabetic mouse = test: Akita model: platelet-neutrophil aggregates and thrombosis onset and cessation; type: in vivo; details: Akita diabetic mice, insulin treatment
Excerpt: FIGS. 28A-28C are three bar graphs showing percent platelet-neutrophil aggregate formation (FIG. 28A), time to onset of thrombosis (FIG. 28B), and time to cessation of thrombosis (FIG. 28C) for Akita non-diabetic mouse, Akita diabetic mouse, Akita diabetic mouse plus insulin, and Akita diabetic mouse plus insulin and NAC; and
Akita model: like STZ model, shown in FIGS. 28A-28C percent platelet-neutrophil aggregate formation is increased, and time to onset and cessation in thrombosis are accelerated in arterioles and venules. Again this reiterates that the effects of diabetes may be “global” rather than confined to one type/cause of diabetes. […] The data evidences that glucose control, which is the current treatment, is not completely effective and that co-treatment with NAC is very effective. […] It appears that insulin and NAC are additive/synergistic.

[1] = test system: brain GSH and cysteine contents; test: Brain GSH and cysteine by HPLC; type: in vivo, mouse; details: vehicle mice given BSO, inhibition of GSH synthesis
Excerpt: Four-week-old male C57BL/6J mice, weighing 18-20 g, were purchased from Jackson Laboratory. These mice were maintained at the Animal Facility of the Louisiana State University Health Sciences Center—Shreveport. Animal care and use in the experiments follow the guidelines in the Guide for the Care and Use of Laboratory Animals, published by the US National Institutes of Health. Following adaptation for 1 week, the mice were divided randomly into 4 groups: non-treated sham operation group (NT-sham group, n=6), non-treated I/R group (NT-I/R group, n=5), vehicle I/R group (Veh-I/R group, n=24), and streptozotocin I/R group (STZ-I/R group, n=19). […] On day 7, mice whose plasma glucose was more than 300 mg/dl were deemed to be diabetic. From diabetes onset at week 1, a group of diabetic mice were given 0.2 mM NAC in the drinking water for 3 weeks (n=3; a total of 4 weeks diabetes, 3 weeks NAC) or 1 week (n=9; a total of 2 weeks diabetes, 1 week NAC). Veh-I/R mice were injected with citrate buffer for consecutive 5 days, and a group of Veh-treated mice were given 0.2 mM NAC for 2 weeks in the drinking water before the ischemia operation (Veh+NAC group, n=8). Another Veh-treated mice were injected (intraperitoneally, 12 hr interval) with 0.5M BSO 24 h before the ischemia operation and during the 24 h reperfusion period (Veh+BSO group, n=10). All mice were 9 weeks old at sacrifice.
Tissue contents of GSH, cysteine and γGC were determined by high-performance liquid chromatography (HPLC). […] Separation of GSH, cysteine and γGC derivatives whose peaks were detected at 365 nm wavelength was performed on a 250×4.6-mm Alltech Lichrosorb NH2 10 μm anion-exchange column. GSH, cysteine and γGC contents were quantified by comparison to standards derivatized in the same manner. Protein pellets were dissolved in 1 M NaOH for protein quantitation and GSH, cysteine and γGC concentrations were expressed as nanomoles per mg protein.

[2] = biological target: T1, glutamate cysteine ligase (GCL) (Homo sapiens, UniProt P48506); details: after brain ischemia/reperfusion, in the presence of BSO; cited from earlier work
T1 sequence (P48506 1-637): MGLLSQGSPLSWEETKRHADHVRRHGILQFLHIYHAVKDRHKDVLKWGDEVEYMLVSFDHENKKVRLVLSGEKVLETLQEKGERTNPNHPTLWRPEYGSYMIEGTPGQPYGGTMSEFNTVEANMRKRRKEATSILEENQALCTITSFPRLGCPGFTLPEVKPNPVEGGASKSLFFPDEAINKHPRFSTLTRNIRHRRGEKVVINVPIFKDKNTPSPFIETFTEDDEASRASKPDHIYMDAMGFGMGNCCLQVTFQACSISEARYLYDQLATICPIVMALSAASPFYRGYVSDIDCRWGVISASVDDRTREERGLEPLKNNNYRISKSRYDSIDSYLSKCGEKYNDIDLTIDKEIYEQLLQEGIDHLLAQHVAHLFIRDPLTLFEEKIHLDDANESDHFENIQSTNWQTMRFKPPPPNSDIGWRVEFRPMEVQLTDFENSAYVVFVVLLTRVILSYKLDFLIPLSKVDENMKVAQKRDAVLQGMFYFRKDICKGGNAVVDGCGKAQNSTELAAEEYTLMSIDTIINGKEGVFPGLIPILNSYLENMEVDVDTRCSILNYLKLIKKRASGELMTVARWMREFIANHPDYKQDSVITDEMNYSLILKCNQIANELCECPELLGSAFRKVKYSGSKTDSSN
T1 sequence (P48507 1-274 partner): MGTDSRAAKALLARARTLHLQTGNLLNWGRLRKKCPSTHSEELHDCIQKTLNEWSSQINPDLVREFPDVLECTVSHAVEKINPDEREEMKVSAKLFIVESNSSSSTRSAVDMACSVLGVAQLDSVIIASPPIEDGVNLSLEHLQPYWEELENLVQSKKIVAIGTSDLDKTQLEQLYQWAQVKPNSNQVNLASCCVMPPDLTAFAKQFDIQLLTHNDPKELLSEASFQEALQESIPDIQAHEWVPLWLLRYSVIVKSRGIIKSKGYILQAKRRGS

[3] = test system: human brain microvascular endothelial cell; test: Endothelial barrier permeability by transendothelial electrical resistance; type: cell-based; details: MG alone
Method: Moreover, treatment with 100 μM MG in rat thoracic aortic rings for 24 h decreases acetylcholine-induced vascular relaxation via a reduction in p-eNOS (Ser1177) and p-AMPKα (Thr172). MG can reduce endothelial angiogenesis through RAGE-mediated, ONOO(^−)-dependent and autophagy-induced VEGFR2 degradation. […] This is exacerbated by GSH synthesis inhibition and prevented by NAC. The enhanced MG concentration in diabetic patients can also directly contribute to the platelet dysfunction associated with diabetes. Platelet dysfunction is characterized by hyperaggregability and reduced thrombus stability via potentiating thrombin-induced platelet aggregation and dense granule release, but inhibiting platelet spreading on fibronectin and collagen. Given that endothelial dysfunction and enhanced platelet activation could promote stroke, these studies indicate that MG can contribute to ischemic brain injury.

[4] = test system: rat thoracic aortic rings; details: 100 μM MG for 24 h; cited from earlier work

Q: With insulin as the compound, how does the platelet-neutrophil aggregate formation (Akita diabetic mouse) read?
A: The platelet-neutrophil aggregate formation was “reversal”.

Q: And the “thrombosis cessation time (time to complete occlusion of the vessel)” value (Akita diabetic mouse)?
A: Its value is “did not correct”.

Q: And the “thrombosis onset time in arterioles” value (Akita diabetic mouse)?
A: Its value is “reversal”.

Q: What about the “thrombosis onset time in venules” value (Akita diabetic mouse) of the same compound?
A: The value was “did not correct”.

Q: Which results are given for `CCCCS(=N)(=O)CCC(N)C(=O)O` [BSO, L-buthionine sulfoximine]?
A: brain cysteine levels [1]: higher free cysteine levels; brain infarction and edema [2]: exacerbated further

Q: For `CC(=O)C=O` [MG, Methylglyoxal], which “endothelial barrier permeability (loss of transendothelial electrical resistance)” value [3] is on record?
A: The value was “increase human brain microvascular endothelial cell barrier permeability”.

Q: What about the acetylcholine-induced vascular relaxation [4] of the same compound?
A: Its acetylcholine-induced vascular relaxation is “decreases”.
